Reference: the supplement of paper PMC10307832

Tests used:
Test in all cases: relative viability (nuclei count vs DMSO), 5 days (fraction); higher = more cells survive
BMX-IN-1 + Lapatinib = compound: C=CC(=O)Nc1cc(-n2c(=O)ccc3cnc4ccc(-c5ccc(NS(C)(=O)=O)cc5)cc4c32)ccc1C [BMX-IN-1] + CS(=O)(=O)CCNCc1ccc(-c2ccc3ncnc(Nc4ccc(OCc5cccc(F)c5)c(Cl)c4)c3c2)o1 [Lapatinib] (partner 2 µM)
How it was run: (§1)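 Medians of duplicate plates are given as relative viability. That measure is the nuclei count in treated wells divided by the count in vehicle wells. Counts were taken on 4× images of lung cancer cell lines in 1536-well plates, 5 days after pin-tool dosing the day after seeding with one drug alone or a fixed anchor-drug dose plus five library-drug doses (not always all listed) in √10 steps.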

PAC-1 + Vorinostat = compound: C=CCc1cccc(/C=N/NC(=O)CN2CCN(Cc3ccccc3)CC2)c1O [PAC-1] + O=C(CCCCCCC(=O)Nc1ccccc1)NO [Vorinostat] (partner 1 µM)
How it was run: as §1

PAC-1 + Pictilisib = compound: C=CCc1cccc(/C=N/NC(=O)CN2CCN(Cc3ccccc3)CC2)c1O [PAC-1] + CS(=O)(=O)N1CCN(Cc2cc3nc(-c4cccc5[nH]ncc45)nc(N4CCOCC4)c3s2)CC1 [Pictilisib] (partner 1 µM)
How it was run: as §1

PAC-1 + Dasatinib = compound: C=CCc1cccc(/C=N/NC(=O)CN2CCN(Cc3ccccc3)CC2)c1O [PAC-1] + Cc1nc(Nc2ncc(C(=O)Nc3c(C)cccc3Cl)s2)cc(N2CCN(CCO)CC2)n1 [Dasatinib] (partner 0.075 µM)
How it was run: as §1

Work on SK-MES-1 yielded a relative viability (BMX-IN-1 + Lapatinib; first compound 0.02 µM) of 0.473, a relative viability (BMX-IN-1 + Lapatinib; first compound 0.2 µM) of 0.466 and a relative viability (BMX-IN-1 + Lapatinib; first compound 0.6325 µM) of 0.489. The relative viability (BMX-IN-1 + Lapatinib; first compound 2 µM) was 0.439, the relative viability (PAC-1 + Vorinostat; first compound 0.02 µM) was 1.18 and the relative viability (PAC-1 + Vorinostat; first compound 0.06325 µM) was 1.09. The relative viability (PAC-1 + Vorinostat; first compound 0.2 µM) was 1.02, the relative viability (PAC-1 + Vorinostat; first compound 2 µM) was 1.17 and the relative viability (PAC-1 + Pictilisib; first compound 0.02 µM) was 0.336. The relative viability (PAC-1 + Pictilisib; first compound 0.06325 µM) was 0.297, the relative viability (PAC-1 + Pictilisib; first compound 0.2 µM) was 0.336 and the relative viability (PAC-1 + Pictilisib; first compound 2 µM) was 0.322. For the same cell line, the relative viability (PAC-1 + Dasatinib; first compound 0.02 µM) was 0.359, the relative viability (PAC-1 + Dasatinib; first compound 0.06325 µM) was 0.516 and the relative viability (PAC-1 + Dasatinib; first compound 0.2 µM) was 0.371. It also gave a relative viability (PAC-1 + Dasatinib; first compound 2 µM) of 0.401.
